Results as given in patent US9173843B2, “Crystalline active ingredient microparticles, method for producing the same and use thereof in drugs” (Jesalis Pharma GMBH, priority 2008, dated 2015).

Experiments:
[1] = grain size distribution by laser diffraction (Sympatec Helos, RODOS dry disperser); format: physicochemical; details: vol. % of particles smaller than value
Procedure: The particle size distribution (grain size distribution) is measured by means of a laser diffraction, which provides a distribution curve of the particle sizes (System Sympatec Helos, RODOS dry disperser). dx means that x volume percent (vol. %) of the particles have a diameter that is smaller than the stated value. Thus, at a d50 value of 1 μm, 50 vol. % of the particles have a diameter smaller than 1 μm (micrometer). When the d10, d99 or d100 is 2 μm, 10, 99 or 100 vol. % of the particles have a diameter smaller than 2 μm.
A 100-ml stirred vessel with blade stirrer is charged with 160 g of Y-stabilized zirconium oxide spheres with a diameter of 0.5 mm plus 30 ml water. A solution of 1.5 g drospirenone in 6.25 ml ethanol/water 4:1 (v/v) is added, with stirring. After precipitation of a mainly amorphous phase, transformation to the crystalline modification begins after approximately 2 min. This is completed after 10 to 15 min. After completion of the phase transformation, a solution of 4.5 g drospirenone in 18.75 ml ethanol/water 4:1 (v/v) and in the same ratio 90 ml water is added dropwise within 15 min, with stirring at 1500 rpm. Simultaneously, with approximately constant filling level, product suspension is drawn off. Addition and product withdrawal can also take place quasicontinuously in smaller portions without any adverse effect on the result, if the above time frame is maintained. After the end of addition, to make the yield complete, approx. 60 ml water is used for rinsing. Alternatively, the suspension in the crystallizer can also be left as starting suspension for the next batch. Altogether, 200 g of suspension is obtained, with a solids content of 25 mg per ml. Approximately 15 ml of this suspension is filtered on a G4 frit and the solid is air-dried. The grain size distribution of the dried substance is determined by laser diffraction (Sympatec Helos, RODOS dispersing system).
Granulometric analysis is carried out by laser diffraction (Sympatec Helos, RODOS dispersing system):
Granulometric analysis was carried out by laser diffraction (Sympatec Helos, RODOS dispersing system, dispersing pressure 5 bar).

[2] = solubility kinetics by the paddle method (dissolved fraction by HPLC); format: physicochemical; details: 900 ml water, 37° C., 150 rpm; micronizate pre-dispersed in 2 ml PVP-containing solution
Procedure: 14 mg of the solid form with Methocel E5 as excipient according to Example 2 with a content of active substance of 21.5 wt. % (equivalent to 3 mg drospirenone) is added to 900 ml water, at 37° C. and stirred at 150 rpm with a blade stirrer. A blind sample (starting value) and samples at 5, 10, 20, 30, and 60 min are taken, filtered in a 0.2 μm syringe filter and the dissolved fraction of drospirenone is determined by HPLC. A conventional micronizate (jet mill) serves as comparison. So that the dissolution behavior of the primary grains of the micronizate is assessed exclusively, wetting and agglomeration effects must be avoided. Therefore, before it was added to the 900 ml of water, the micronizate was dispersed in 2 ml of a PVP-containing solution. The process of release of the particles from the solid form and the subsequent process of dissolution are completed after 5 min, whereas with the conventional micronizate, even with perfect wetting and dispersion of the particles, still almost 30% of the active substance is undissolved after 5 min.

d16 (grain size distribution) [1]	d50 (grain size distribution) [1]	d99 (grain size distribution) [1]	d100 (grain size distribution) [1]	active substance undissolved after 5 min [2]	SMILES
0.52 μm	1.48 μm	4.63 μm	6.00 μm	–	C[C@]12CCC(=O)C=C1[C@@H]1C[C@@H]1[C@H]1[C@@H]3[C@@H]4C[C@@H]4[C@@]4(CCC(=O)O4)[C@@]3(C)CC[C@@H]12 [Example 1, drospirenone]
–	–	–	–	~30%	C[C@]12CCC(=O)C=C1[C@@H]1C[C@@H]1[C@H]1[C@@H]3[C@@H]4C[C@@H]4[C@@]4(CCC(=O)O4)[C@@]3(C)CC[C@@H]12 [conventional micronizate, drospirenone]
